For the assay, the system named is H1N1 (influenza A/New Caledonia/20/99). The experiment in a line: Antiviral effect on A549 cells infected with H1N1. The assay is classed as cell-based, H1N1 A/New Caledonia/20/99 virus. The note with it: Influenza A virus, MOI 0.1, 48 h post-infection, MUNANA neuraminidase readout. As for the experimental part:
The antiviral effect of the compounds of the invention have been tested on A549 cell lines infected with H1N1 (influenza A/New Caledonia/20/99).
Human A549 cells (80,000 cells/well in a 96 well plate) were treated with a range of concentration of test compounds and immediately infected by H1N1 A/New Caledonia/20/99 virus (clinical isolate) at MOI of 0.1 in DMEM/1% Penicillin/streptomycin supplemented with […] TPCK trypsin (Sigma) and incubated at 37° C. in 5% CO2. 48 h post-infection, supernatants (25 μl) were collected and transferred into a 96-well black flat-bottom plate, mixed with 25 μl PBS with Ca++/Mg++ (Thermo Fisher) and 50 μl of 2′-(4-Methylumbelliferyl)-ax-D-N-acetylneuraminic acid sodium salt hydrate stock-solution (20 μM, MUNANA, Sigma). Plates were incubated 1h at 37° C. and reaction is stopped by adding 100 μl of Stop Solution (glycine 0.1 M pH10.7/25% ethanol). The amount of fluorescent product released by MUNANA hydrolysis (4-MU) was measured in a Tecan spectrophotometer with excitation and emission wavelengths of 365 and 450 nm respectively.

SMILES strings stand for the structures.

Regarding `O=C(Nc1sc(Cl)c(C2CCCCC2)c1C(=O)O)c1ccccc1` [Compound #12, 2-Benzamido-5-chloro-4-cyclohexyl-thiophene-3-carboxylic acid], the IC50 turned out to be 0.245 µM. In the case of `O=C(Nc1scc(C2COc3ccccc3C2)c1C(=O)O)c1ccccc1` (stereo not shown) [Compound #84, 2-Benzamido-4-chroman-3-yl-thiophene-3-carboxylic acid], half-maximal inhibition (IC50) required 0.287 µM. Molecule `O=C(Nc1sc(Cl)c(-c2ccc(C(F)(F)F)cc2)c1C(=O)O)c1ccccc1` [Compound #50, 2-Benzamido-5-chloro-4-[4-(trifluoromethyl)phenyl]thiophene-3-carboxylic acid] returned an IC50 of 0.32 µM.

Turning to `CC1(C)C(c2csc(NC(=O)c3ccccc3)c2C(=O)O)C1(C)C` [Compound #39, 2-Benzamido-4-(2,2,3,3-tetramethylcyclopropyl)thiophene-3-carboxylic acid], the midpoint of inhibition, the IC50, lay at 2.37 µM. With `COC1CN(c2ccc(C(=O)Nc3sc(C)c(C)c3C(=O)O)cc2)C1` [Compound #100, 2-[[4-(3-Methoxyazetidin-1-yl)benzoyl]amino]-4,5-dimethyl-thiophene-3-carboxylic acid], the IC50 amounted to 0.0445 µM. Then `O=C(Nc1scc(-c2ccccc2Cl)c1C(=O)O)c1ccccc1` [Compound #44, 2-Benzamido-4-(2-chlorophenyl)thiophene-3-carboxylic acid], with 6.65 µM; and `O=C(Nc1scc(-c2ccccc2)c1C(=O)O)c1ccccc1` [Compound #43, 2-Benzamido-4-phenyl-thiophene-3-carboxylic acid], with 5.95 µM; and `O=C(Nc1sc(Cl)c(-c2ccccc2)c1C(=O)O)c1ccc(OC(F)F)cc1` [Compound #31, 5-Chloro-2-[[4-(difluoromethoxy)benzoyl]amino]-4-phenyl-thiophene-3-carboxylic acid], with 1.37 µM.

Regarding `O=C(Nc1scc(C2CCCC2)c1C(=O)O)c1ccc(NCC2CCOCC2)cc1` [Compound #66, 4-Cyclopentyl-2-[[4-(tetrahydropyran-4-ylmethylamino)benzoyl]amino]thiophene-3-carboxylic acid], the midpoint of inhibition, the IC50, lay at 0.015 µM. For the molecule `O=C(Nc1scc(C2CCCC2)c1C(=O)O)c1ccccc1` [Compound #10, 2-Benzamido-4-cyclopentyl-thiophene-3-carboxylic acid], the IC50 is 0.205 µM. In the case of `CN(CC1CCOCC1)c1ccc(C(=O)Nc2scc(C(C)(C)C)c2C(=O)O)cc1` [Compound #120, 4-tert-Butyl-2-[[4-[methyl(tetrahydropyran-4-ylmethyl)amino]benzoyl]amino]thiophene-3-carboxylic acid] it was 0.1 µM; in that of `Cc1sc(NC(=O)c2ccccc2)c(C(=O)O)c1C1CCCCC1` [Compound #27, 2-Benzamido-4-cyclohexyl-5-methyl-thiophene-3-carboxylic acid], 0.88 µM; in that of `O=C(Nc1scc(C2CC2)c1C(=O)O)c1ccc(NCC2CCOCC2)cc1` [Compound #90, 4-Cyclopropyl-2-[[4-(tetrahydropyran-4-ylmethylamino)benzoyl]amino]thiophene-3-carboxylic acid], 0.24 µM.

For `CC(C)(C)c1csc(NC(=O)c2ccc(NCC3CCCOC3)cc2)c1C(=O)O` (stereo not shown) [Compound #119, 4-tert-Butyl-2-[[4-(tetrahydropyran-3-ylmethylamino)benzoyl]amino]thiophene-3-carboxylic acid], the IC50 was found to be 0.1 µM. In the case of `COC1CN(c2ccc(C(=O)Nc3scc(C4CC(F)(F)C4)c3C(=O)O)cc2)C1` [Compound #107, 4-(3,3-Difluorocyclobutyl)-2-[[4-(3-methoxyazetidin-1-yl)benzoyl]amino]thiophene-3-carboxylic acid] it was 0.46 µM; in that of `Cc1ccc(-c2csc(NC(=O)c3ccccc3)c2C(=O)O)cc1` [Compound #21, 2-Benzamido-4-(p-tolyl)thiophene-3-carboxylic acid], 0.61 µM. Molecule `Cc1sc(NC(=O)c2ccc(OC(F)F)cc2)c(C(=O)O)c1-c1ccccc1` [Compound #30, 2-[[4-(Difluoromethoxy)benzoyl]amino]-5-methyl-4-phenyl-thiophene-3-carboxylic acid] gave an IC50 of 1.37 µM.

`O=C(Nc1sc(Cl)c(C2CCCCC2)c1C(=O)O)c1ccc(N2CCOCC2)cc1` [Compound #15, 5-Chloro-4-cyclohexyl-2-[(4-morpholinobenzoyl)amino]thiophene-3-carboxylic acid] had an IC50 of 0.225 µM. In turn, `COCCNc1ccc(C(=O)Nc2scc(C3CCCC3)c2C(=O)O)cc1` [Compound #61, 4-Cyclopentyl-2-[[4-(2-methoxyethylamino)benzoyl]amino]thiophene-3-carboxylic acid] displayed a half-inhibitory concentration (IC50) of 0.1 µM.

On to `Cc1sc(NC(=O)c2ccc(NCC3CCOCC3)cc2)c(C(=O)O)c1C` [Compound #102, 4,5-Dimethyl-2-[[4-(tetrahydropyran-4-ylmethylamino)benzoyl]amino]thiophene-3-carboxylic acid], for which 0.82 µM corresponded to half-maximal inhibition (IC50). Then `O=C(Nc1scc(C2CCC2)c1C(=O)O)c1ccccc1` [Compound #98, 2-Benzamido-4-cyclobutyl-thiophene-3-carboxylic acid], with 0.61 µM. In the case of `O=C(Nc1scc(C2CC(F)(F)C2)c1C(=O)O)c1ccc(NCC2CCOCC2)cc1` [Compound #106, 4-(3,3-Difluorocyclobutyl)-2-[[4-(tetrahydropyran-4-ylmethylamino)benzoyl]amino]thiophene-3-carboxylic acid] it was 0.35 µM; in that of `CC(C)(C)[C@H]1CC[C@H](c2csc(NC(=O)c3ccccc3)c2C(=O)O)CC1` [Compound #48, 2-Benzamido-4-(trans-4-tert-butylcyclohexyl)thiophene-3-carboxylic acid], 0.35 µM. Then `COCCNc1ccc(C(=O)Nc2scc(C(C)(C)C)c2C(=O)O)cc1` [Compound #103, 4-tert-Butyl-2-[[4-(2-methoxyethylamino)benzoyl]amino]thiophene-3-carboxylic acid], with 0.46 µM. On to `COCCN(C)c1ccc(C(=O)Nc2scc(C(C)(C)C)c2C(=O)O)cc1` [Compound #117, 4-tert-Butyl-2-[[4-[2-methoxyethyl(methyl)amino]benzoyl]amino]thiophene-3-carboxylic acid], for which the IC50 came out at 0.076 µM. As for `COC1CN(c2ccc(C(=O)Nc3scc(C(C)(C)C)c3C(=O)O)cc2)C1` [Compound #92, 4-tert-Butyl-2-[[4-(3-methoxyazetidin-1-yl)benzoyl]amino]thiophene-3-carboxylic acid], the IC50 was determined as 0.26 µM. In the case of `CC(C)(C)[C@H]1CC[C@@H](c2csc(NC(=O)c3ccccc3)c2C(=O)O)CC1` [Compound #54, 2-Benzamido-4-(cis-4-tert-butylcyclohexyl)thiophene-3-carboxylic acid] it was 0.46 µM; in that of `Cc1ccc(-c2csc(NC(=O)c3ccccc3)c2C(=O)O)cc1C` [Compound #22, 2-Benzamido-4-(3,4-dimethylphenyl)thiophene-3-carboxylic acid], 0.55 µM; in that of `COCCOc1ccc(C(=O)Nc2scc(C(C)(C)C)c2C(=O)O)cc1` [Compound #116, 4-tert-Butyl-2-[[4-(2-methoxyethoxy)benzoyl]amino]thiophene-3-carboxylic acid], 0.01 µM. In the case of `O=C(Nc1sc(C2CCCCC2)cc1C(=O)O)c1ccc(OC(F)F)cc1` [Compound #41, 5-Cyclohexyl-2-[[4-(difluoromethoxy)benzoyl]amino]thiophene-3-carboxylic acid] it was 2.57 µM; in that of `O=C(Nc1scc(C2CC(F)(F)C2)c1C(=O)O)c1ccccc1` [Compound #35, 2-Benzamido-4-(3,3-difluorocyclobutyl)thiophene-3-carboxylic acid], 1.67 µM; in that of `O=C(Nc1sc(Cl)c(-c2ccc(Cl)c(F)c2)c1C(=O)O)c1ccccc1` [Compound #6, 2-Benzamido-5-chloro-4-(4-chloro-3-fluoro-phenyl)thiophene-3-carboxylic acid], 0.247 µM. Then `Cc1ccccc1C(=O)Nc1sc(-c2ccccc2)cc1C(=O)O` [Compound #45, 2-[(2-Methylbenzoyl)amino]-5-phenyl-thiophene-3-carboxylic acid], with 8.55 µM; and `COC1CN(c2ccc(C(=O)Nc3scc(C(C)(C)C)c3C(=O)O)c(F)c2)C1` [Compound #121, 4-tert-Butyl-2-[[2-fluoro-4-(3-methoxyazetidin-1-yl)benzoyl]amino]thiophene-3-carboxylicacid], with 0.51 µM; and `COC1CN(c2ccc(C(=O)Nc3scc(C4(C)CC4)c3C(=O)O)cc2)C1` [Compound #112, 2-[[4-(3-Methoxyazetidin-1-yl)benzoyl]amino]-4-(1-methylcyclopropyl) thiophene-3-carboxylic acid], with 0.38 µM.

On to `COCCOc1ccc(C(=O)Nc2scc(C3COc4ccccc4C3)c2C(=O)O)cc1` (stereo not shown) [Compound #95, 4-Chroman-3-yl-2-[[4-(2-methoxyethoxy)benzoyl]amino]thiophene-3-carboxylic acid], for which it took 0.61 µM to reach half-maximal inhibition (IC50). Then `O=C(Nc1scc(-c2ccc(C(F)(F)F)cc2)c1C(=O)O)c1ccccc1` [Compound #20, 2-Benzamido-4-[4-(trifluoromethyl)phenyl]thiophene-3-carboxylic acid], with 0.31 µM.

The IC50 is the concentration at which inhibition is half-maximal. A lower IC50 goes with inhibition by little substance.

The values are drawn from patent US11840527B2, “Non-fused thiophene derivatives and their uses” (ENYO PHARMA, priority 2018, dated 2023).
